Experiments:
Format in all cases: cell-based
VEGF-A = target: T1, VEGF-A (Homo sapiens, UniProt P15692); assay: VEGF-A induced sprouting of HUVEC, spheroid-based cellular angiogenesis assay; settings: VEGF-A 25 ng/mL preincubated with compound, 24 h, read-out: VEGF-A1 IC50
T1 construct: purchased ProQinase GmbH
T1 sequence (P15692 27-191 isoform P15692-4): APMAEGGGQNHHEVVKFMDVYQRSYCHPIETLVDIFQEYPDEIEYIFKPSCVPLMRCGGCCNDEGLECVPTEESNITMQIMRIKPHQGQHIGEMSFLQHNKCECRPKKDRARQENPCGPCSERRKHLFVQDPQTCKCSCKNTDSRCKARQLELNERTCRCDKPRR
Method: (§1) Aim of this in vitro method is to assess compounds effects on FGF-2, FGF-1, or VEGF-A induced sprouting of human umbilical vein endothelial cells (HUVEC) in the spheroid-based cellular angiogenesis assay. Before adding the growth factors to the cells, they were preincubated with the compound. Sunitinib was tested as a control (without preincubation).
(§2) IC50 values determined for the tested compounds are expressed in microM [μM] and the values for the inhibition of FGF-1, FGF2 and VEGF-A induced growth (sprouting) are listed after each compound in the examples after chemical characterization.
(§3) Sprouting test was performed on the compounds dissolved in DMSO to reach 100-fold concentrated stock solutions and dissolved in culture media. Sunitinib as reference compound was provided by ProQinase GmbH. Growth factors were purchased from rhFGF-basic (FGF-2), Peprotech, New Jersey, USA, #100-18C, Lot #0415571; rhFGF-acidic (FGF-1), Peprotech, New Jersey, USA, #100-17A, Lot #031207; hVEGF-A165 (ProQinase GmbH, Freiburg, Germany; 05.02.2010) were used for stimulation of HUVEC cells growth.
(§4) Test system: Endothelial cells from human umbilical vein (HUVEC) from pooled donors were stored frozen with 70% medium, 20% FCS, 10% DMSO at about 1×10^6 cells/ampoule. HUVEC cells, primary human umbilical vein endothelial cells (PromoCell, Heidelberg, Germany), were used after passage 3 to 4. Morphology of the cells are adherent, cobblestone-like growing as monolayer and were cultured in endothelial cell growth and basal medium (ECGM/ECBM, PromoCell). The subculture was split 1:3; every 3-5 days, seed out at ca. 1×10^4 cells/cm^2 and incubated at 37° C. with 5% CO2 with a doubling time 24-48 hours
(§5) Dilution of test compounds: 100× concentrated solutions (concerning to the final assay concentrations) of each test compound were prepared with the appropriate solvent (in DMSO or in water). These 100×compound solutions were further diluted in endothelial cell growth and basal medium (ECBM) 1:7.5 to get a 13.33× concentrated solution. 75 μl of the 13.33×solution was subsequently mixed with 25 μl of 40× concentrated stimulus (solved in ECBM), resulting in a 10×concentrated stimulus/compound mixture. This mixture (100 μl) was incubated for 30 min at 37° C. and then added to 900 μl gel, containing the HUVEC spheroids (resulting in the final assay concentration).
(§6) Test method: the experiments were pursued in modification of the originally published protocol (Korff and Augustin: J Cell Sci 112: 3249-58, 1999). In brief, spheroids were prepared as described (Korff and Augustin: J Cell Biol 143: 1341-52, 1998) by pipetting 400 HUVEC in a hanging drop on plastic dishes to allow overnight spheroid aggregation. 50 HUVEC spheroids were then seeded in 0.9 ml of a collagen gel and pipetted into individual wells of a 24 well plate to allow polymerization. The test compounds were preincubated with the growth factors (FGF-1, FGF-2 or VEGF-A final concentration 25 ng/mL) in a 10-fold concentrated solution and subsequently, 100 μl of this solution was added on top of the polymerized gel. All compounds were diluted in solvent (DMSO or water) as 100×stocks first (which means 100×stocks of each final assay concentration were prepared in solvent). Subsequently, these stocks were further diluted in medium (resulting in the 13.33×stocks of each final assay concentration) with final concentrations tested: 100, 50, 25, 12.5, 6.25, 3.13 and 1.56×10^−6 M). Plates were incubated at 37° C. for 24 hours and fixed by adding 4% PFA (Roth, Karlsruhe, Germany).
(§7) Quantification of growth factor inhibition: sprouting intensity of HUVEC spheroids treated with the growth factor and the inhibitors were quantitated by an image analysis system determining the cumulative sprout length per spheroid (CSL).

FGF-2 = target: T2, FGF-2 (Homo sapiens, UniProt P09038); assay: FGF-2 induced sprouting of HUVEC, spheroid-based cellular angiogenesis assay; settings: FGF-2 25 ng/mL preincubated with compound, 24 h
T2 construct: purchased Peprotech 100-18C
T2 sequence (P09038 134-288): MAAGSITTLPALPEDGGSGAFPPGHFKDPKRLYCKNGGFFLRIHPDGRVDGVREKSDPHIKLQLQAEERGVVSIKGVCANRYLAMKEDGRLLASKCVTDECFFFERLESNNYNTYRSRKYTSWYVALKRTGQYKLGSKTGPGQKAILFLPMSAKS
Method: as §1, §2, §3, §4, §5, §6, §7

FGF-1 = target: T3, FGF-1 (Homo sapiens, UniProt P05230); assay: FGF-1 induced sprouting of HUVEC, spheroid-based cellular angiogenesis assay; settings: FGF-1 25 ng/mL preincubated with compound, 24 h
T3 construct: purchased Peprotech 100-17A
T3 sequence (P05230 whole entry): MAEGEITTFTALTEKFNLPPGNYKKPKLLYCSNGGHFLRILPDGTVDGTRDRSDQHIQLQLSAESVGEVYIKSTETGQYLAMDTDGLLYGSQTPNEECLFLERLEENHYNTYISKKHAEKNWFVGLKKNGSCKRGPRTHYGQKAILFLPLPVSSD
Method: as §1, §2, §3, §4, §5, §6, §7

Human neutrophils [1] = assay: Inhibition of ROS production in human neutrophils (isoluminol chemiluminescence); settings: fMLP+TNF-α stimulated PMN
Source text: NADPH oxidase, located in the plasma membrane and in the membranes of specific granules, produces superoxide anions from which other ROS, such as hydrogen peroxide, singlet oxygen, hypochlorite, and active hydroxyl radicals. ROS are released into the surrounding medium or into a membrane-enclosed subcellular organelle. One quick and sensitive method for measuring the generation of these metabolites is chemiluminescence (CL). Isoluminol amplified CL technique, is very sensitive and widely used to study respiratory burst (mainly extracellular production of ROS) induced in neutrophils.
Human neutrophils were isolated from buffy coats which obtained from healthy donors. The isolated neutrophils (3×10^6/ml) were suspended in Hanks' Balanced Salt Solution (HBSS) with Calcium and Magnesium. Neutrophils were pre-incubated with the compounds at different concentrations (0.1, 0.3, 1, 3 and 10 μM) for 30 min at 37° C. The black 96-well cell culture plates were coated with human fibrinogen (0.25 mg/ml in PBS), and incubated overnight at 4° C. or 2 hr at 37° C. Then the plates were washed with endotoxin-free PBS. The neutrophils were incubated (priming) with TNF-α (20 ng/ml) for 10 minutes at 37° C. Thereupon the 75 μl of cell suspension and 75 μl (Isoluminol+HRP solution) were added to each well. The chemiluminescence was recorded (every 25 sec for 250 sec) after fMLP (1 μM) activation using a Multilabel Reader victor3 (Perkin Elmer, USA). Background values, defined as the mean chemiluminescent values of isoluminol diluted in HBSS, were subtracted from all readings (CPS, count per second). The assays were done in duplicate or triplicate.

Human neutrophils [2] = assay: Neutrophil adhesion under static conditions; settings: fMLP-stimulated adhesion to fibrinogen; method: 40 μM and 80 μM, concentration of the value not stated
Method: Human neutrophils obtained from buffy coats of healthy donors were suspended at 3×10^6/ml in adhesion buffer (PBS containing 1 mM CaCl2)/MgCl2 and 10% FCS, pH 7.2). Neutrophils were preincubated for 30 min at 37° C. with 40 μM and 80 μM of the compounds.
Adhesion assays were performed on 18-well glass slides coated for 18 h at 4° C. with human fibrinogen (20 μg/well in endotoxin-free PBS); 20 μl of cell suspension were added to each well and stimulated for 1 min at 37° C. with 5 μl of fMLP 1 nM final concentration. After washing, adherent cells were fixed in glutaraldehyde 1.5% in PBS and counted by computer-assisted enumeration. Statistical analysis was performed by calculating mean and standard deviation (SD); significance was calculated by unpaired t-test. All statistical analyses were performed using GraphPad Prism 6 (GraphPad Software).

VEGFR-2 = target: T4, VEGFR-2 (Homo sapiens, UniProt P35968); assay: VEGF-165 induced phosphorylation of VEGF-Receptor on HUVEC; settings: HUVEC preincubated 60 min, VEGF165 25 ng/mL 2 min; read-out: VEGFR-Phosphorylation inhibition IC50
T4 construct: endogenous in cells; host or cells: primary HUVEC
T4 sequence (P35968 20-1356): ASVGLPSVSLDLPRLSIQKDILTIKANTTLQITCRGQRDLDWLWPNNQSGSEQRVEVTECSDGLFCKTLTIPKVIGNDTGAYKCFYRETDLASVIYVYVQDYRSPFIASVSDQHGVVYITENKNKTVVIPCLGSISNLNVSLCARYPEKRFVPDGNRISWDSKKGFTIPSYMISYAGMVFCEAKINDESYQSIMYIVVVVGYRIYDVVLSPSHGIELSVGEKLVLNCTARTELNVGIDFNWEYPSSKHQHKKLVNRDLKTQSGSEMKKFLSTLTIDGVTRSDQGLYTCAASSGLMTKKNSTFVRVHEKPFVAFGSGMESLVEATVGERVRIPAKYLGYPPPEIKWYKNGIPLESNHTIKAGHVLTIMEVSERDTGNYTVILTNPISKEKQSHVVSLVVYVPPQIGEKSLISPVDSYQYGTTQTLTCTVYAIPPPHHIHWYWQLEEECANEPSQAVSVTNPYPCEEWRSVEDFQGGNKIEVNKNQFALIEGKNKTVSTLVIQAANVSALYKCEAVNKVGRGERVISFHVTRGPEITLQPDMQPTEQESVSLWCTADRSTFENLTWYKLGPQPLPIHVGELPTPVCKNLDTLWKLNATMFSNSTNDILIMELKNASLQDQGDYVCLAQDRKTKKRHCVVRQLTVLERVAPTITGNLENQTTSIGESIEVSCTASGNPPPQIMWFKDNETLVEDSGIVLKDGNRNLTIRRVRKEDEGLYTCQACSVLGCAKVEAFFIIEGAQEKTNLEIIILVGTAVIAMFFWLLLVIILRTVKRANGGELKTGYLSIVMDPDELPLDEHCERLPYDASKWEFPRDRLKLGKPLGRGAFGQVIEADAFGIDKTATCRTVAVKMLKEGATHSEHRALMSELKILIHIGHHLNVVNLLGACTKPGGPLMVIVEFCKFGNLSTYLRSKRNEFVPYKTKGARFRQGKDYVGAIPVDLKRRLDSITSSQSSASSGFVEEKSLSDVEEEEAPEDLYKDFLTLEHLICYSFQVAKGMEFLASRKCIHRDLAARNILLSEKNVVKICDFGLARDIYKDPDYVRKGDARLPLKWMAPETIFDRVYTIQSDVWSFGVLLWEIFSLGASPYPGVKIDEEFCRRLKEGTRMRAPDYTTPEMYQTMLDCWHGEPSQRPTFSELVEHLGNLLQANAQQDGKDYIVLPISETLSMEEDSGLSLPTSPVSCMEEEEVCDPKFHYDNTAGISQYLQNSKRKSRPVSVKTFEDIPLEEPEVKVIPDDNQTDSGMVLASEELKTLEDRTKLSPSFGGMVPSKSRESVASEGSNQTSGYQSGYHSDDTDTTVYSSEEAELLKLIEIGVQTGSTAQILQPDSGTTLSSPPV
Method: Cell culture: Primary human umbilical vein endothelial cells (HUVECs) were routinely cultured in 0.1% gelatin pre-coated flasks or dishes, up to passage 6. […]
Rabbit primary antibodies for VEGFR-2, p-Tyr1175 were acquired from Cell Signaling Technology (Leiden, The Netherlands). Phospho-VEGFR-2 (Tyr1175) Sandwich ELISA Kit was from Cell Signaling Technology.
[…] Western blot analysis was performed using anti-phospho-VEGFR-2 antibody and total VEGFR-2 was used as a loading control after membrane stripping.
Inhibition of VEGFR-2-phosphorylation results are expressed as IC50 in microM [μM] versus VEGF-treated HUVECs control without inhibitory compound.

[3] = Homo sapiens, Neutrophil, 0.3 μM

Row | Structure (SMILES) | IC50 (VEGF-A) | IC50 (FGF-2) | IC50 (FGF-1) | inhibition at 0.3 µM (Human neutrophils [1]; [3]) | Neutrophil adhesion inhibition (Human neutrophils [2]) | IC50 (VEGFR-2) | IC50 (Human neutrophils [1]; Homo sapiens, Neutrophil) | PMN ROS inhibition at 0.3 μM (Human neutrophils [1]; 0.3 μM)
1 | O=C(O)Cc1cc(O)c(C(=O)Nc2ccccc2C(=O)O)cc1O [IIIa-001a, 2-(4-(carboxymethyl)-2,5-dihydroxybenzamido)benzoic acid] | 32 µM | 10 µM | 62 µM | 74.8% | 30.4% | – | – | –
2 | CCOC(=O)Cc1cc(O)c(C(=O)Nc2ccccc2C(=O)OC)cc1O [IIIa-001a-E2, methyl 2-(4-(ethoxycarbonylmethyl)-2,5-dihydroxybenzamido)benzoate] | 43 µM | 33 µM | ≥ 200 µM | 69.7% | 44.46% | – | – | –
3 | CCOC(=O)Cc1cc(O)c(C(=O)Nc2cc(C(=O)OCC)cc(C(=O)OCC)c2)cc1O [IIIa-015a-E3, diethyl 5-(4-(ethoxycarbonylmethyl)-2,5-dihydroxybenzamido)isophthalate] | 87 µM | 191 µM | – | 91.4% | 61.22% | 7.2 µM | – | –
4 | O=C(O)c1cc(O)c(COCc2cc(O)c(C(=O)O)cc2O)cc1O [IIIc-060a, 4-((2,5-Dihydroxy-4-carboxyphenyl)methoxymethyl)-2,5-dihydroxybenzoic acid] | 114 µM | 51 µM | – | 86.8% | 41.38% | 1.3 µM | – | –
5 | O=C(O)c1cc(O)cc(C(=O)Nc2ccccc2-c2nnn[nH]2)c1O [IIa-001a-Tz, 3-(2-(1H-tetrazol-5-yl)phenylaminocarbonyl)-2,5-dihydroxybenzoic acid] | 187 µM | 9.8 µM | – | 74.2% | 24.18% | – | – | –
6 | O=C(O)c1cc(O)ccc1NC(=O)c1cc(O)cc(C(=O)O)c1O [IIa-006a, 3-(2-carboxy-4-hydroxyphenylaminocarbonyl)-2,5-dihydroxybenzoic acid] | 121 µM | 43 µM | – | 84.3% | 20.29% | 2.9 µM | – | –
7 | O=C(O)c1ccc(C(=O)O)c(NC(=O)c2cc(O)cc(C(=O)O)c2O)c1 [IIa-012a, 2-(3-carboxy-2,5-dihydroxybenzamido)terephthalic acid] | 32 µM | – | – | 44.8% | 7.5% | 3.31 µM | 0.313 µM | –
8 | O=C(O)c1cc(NC(=O)c2cc(O)cc(C(=O)O)c2O)cc(NC(=O)c2cc(O)cc(C(=O)O)c2O)c1 [IIb-010a, 3,5-Bis(2,5-dihydroxy-3-carboxybenzoylamino)benzoic acid] | 28 µM | 102 µM | ≥ 200 µM | 81.9% | 59.84% | – | – | –
9 | CCOC(=O)c1cc(OC(C)=O)c(C(=O)Nc2ccccc2-c2nnn[nH]2)cc1OC(C)=O [Ia-001a-Tz-E1-A2, ethyl 4-(2-(1H-tetrazol-5-yl)phenylaminocarbonyl)-2,5-diacetoxybenzoate] | ≥ 200 µM | ≥ 200 µM | 60 µM | 49.9% | 98.2% | – | – | –
10 | O=C(O)c1cc(O)c(C(=O)Nc2cnccc2C(=O)O)cc1O [Ia-023a, 3-(4-carboxy-2,5-dihydroxybenzamido)isonicotinic acid] | 143 µM | 63 µM | – | 62% | 13.37% | ≥ 100 µM | – | –
11 | CCOC(=O)c1cc(O)c(C(=O)Nc2cnccc2C(=O)OCC)cc1O [Ia-023a-E2, ethyl 3-(4-(ethoxycarbonyl)-2,5-dihydroxybenzamido)isonicotinate] | 141 µM | 76 µM | – | 69.5% | 34% | 6.6 µM | – | –
12 | O=C(O)c1cc(O)c(C(=O)NC(C(=O)O)c2ccc(O)c(O)c2)cc1O (stereo not shown) [Ia-036a, 4-(Carboxy(3,4-dihydroxyphenyl)methylaminocarbonyl)-2,5-dihydroxybenzoic acid] | 123 µM | 37 µM | – | – | 30.77% | 1.6 µM | – | 87.17%
13 | O=C(Nc1ccc(O)cc1C(=O)O)c1cc(O)c(C(=O)Nc2ccc(O)cc2C(=O)O)cc1O [Ic-009a, 2-(2,5-dihydroxy-4-(4-hydroxy-2-carboxyphenylaminocarbonyl)benzamido)-5-hydroxy benzoic acid] | 208 µM | 202 µM | 32 µM | 72.8% | 72.21% | – | – | –

— patent US20230150951A1, “2,5- OR 2,6-DISUBSTITUTED HYDROQUINONE DERIVATIVES WITH AT LEAST ONE CARBOXY, SULFO OR AMIDO GROUP USEFUL AS MEDICAMENTS” (OM PHARMA SA, priority 2020, published 2023)
